Reference: PubChem BioAssay (NCI)
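Grown in 96-well plates, cells were treated for 48 hours with each compound at five concentrations. Insufficient inhibition: endpoint recorded as highest concentration tested. TGI: concentration producing complete growth inhibition.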

Tests used:
Experiment in all cases: NCI tumour cell line growth inhibition, 48 h
[1] = system: HT29 colon
[2] = system: ACHN renal
[3] = system: UACC-257 melanoma
[4] = system: SW-620 colon
[5] = system: KM12 colon
[6] = system: UACC-62 melanoma
[7] = system: SK-MEL-28 melanoma
[8] = system: HL-60(TB) leukemia
[9] = system: MALME-3M melanoma
[10] = system: K-562 leukemia
[11] = system: SF-295 CNS
[12] = system: RXF-631 renal
[13] = system: U251 CNS
[14] = system: HOP-62 NSCLC
[15] = system: OVCAR-8 ovarian
[16] = system: SNB-75 CNS
[17] = system: MOLT-4 leukemia
[18] = system: EKVX NSCLC
[19] = system: NCI-H460 lung
[20] = system: NCI-H23 lung
[21] = system: HCC-2998 colon
[22] = system: 786-0 renal
[23] = system: A549 NSCLC
[24] = system: LXFL 529 NSCLC
[25] = system: IGROV1 ovarian
[26] = system: SR leukemia
[27] = system: HOP-18 NSCLC
[28] = system: COLO 205 colon
[29] = system: UO-31 renal
[30] = system: DMS 114 small cell lung
[31] = system: SNB-19 CNS
[32] = system: RXF 393 renal
[33] = system: LOX IMVI melanoma
[34] = system: HOP-92 NSCLC
[35] = system: KM20L2 colon
[36] = system: OVCAR-5 ovarian
[37] = system: M14 melanoma
[38] = system: NCI-H522 lung
[39] = system: SF-268 CNS
[40] = system: HCT-15 colon
[41] = system: SK-MEL-5 melanoma
[42] = system: OVCAR-3 ovarian
[43] = system: DLD-1 colon
[44] = system: HCT-116 colon
[45] = system: SK-OV-3 ovarian
[46] = system: RPMI-8226 leukemia
[47] = system: TK-10 renal
[48] = system: SN12C renal
[49] = system: M19-MEL melanoma
[50] = system: CCRF-CEM leukemia
[51] = system: SF-539 CNS
[52] = system: NCI-H226 lung
[53] = system: CAKI-1 renal
[54] = system: NCI/ADR-RES ovarian
[55] = system: DU-145 prostate
[56] = system: MDA-MB-435
[57] = system: PC-3 prostate
[58] = system: A498 renal
[59] = system: MCF7 breast
[60] = system: MDA-MB-231 breast
[61] = system: MDA-N
[62] = system: T-47D breast
[63] = system: DMS 273 small cell lung
[64] = system: XF 498 CNS
[65] = system: OVCAR-4 ovarian
[66] = system: SK-MEL-2 melanoma
[67] = system: HS 578T breast
[68] = system: BT-549 breast
[69] = system: SNB-78 CNS

COc1cc2c(cc1OC)-c1c(cc(OC)c(OC)c1OC)C2=O
TGI [1]: > 100 µM
TGI [2]: > 100 µM
TGI [3]: > 100 µM
TGI [4]: > 100 µM
TGI [5]: > 100 µM
TGI [6]: > 100 µM
TGI [7]: > 100 µM
TGI [8]: > 100 µM
TGI [9]: > 100 µM
TGI [10]: > 100 µM
TGI [11]: > 100 µM
TGI [12]: > 100 µM
TGI [13]: > 100 µM
TGI [14]: > 100 µM
TGI [15]: > 100 µM
TGI [16]: 95.5 µM
TGI [17]: > 100 µM
TGI [18]: > 100 µM
TGI [19]: > 100 µM
TGI [20]: > 100 µM
TGI [21]: > 100 µM
TGI [22]: > 100 µM
TGI [23]: > 100 µM
TGI [24]: > 100 µM
TGI [25]: > 100 µM
TGI [26]: > 100 µM
TGI [27]: > 100 µM
TGI [28]: > 100 µM
TGI [29]: > 100 µM
TGI [30]: > 100 µM
TGI [31]: > 100 µM
TGI [32]: > 100 µM
TGI [33]: > 100 µM
TGI [34]: > 100 µM
TGI [35]: > 100 µM
TGI [36]: > 100 µM
TGI [37]: > 100 µM
TGI [38]: > 100 µM
TGI [39]: > 100 µM
TGI [40]: > 100 µM
TGI [41]: > 100 µM
TGI [42]: > 100 µM
TGI [43]: > 100 µM
TGI [44]: > 100 µM
TGI [45]: > 100 µM
TGI [46]: > 100 µM
TGI [47]: > 100 µM
TGI [48]: > 100 µM
TGI [49]: > 100 µM
TGI [50]: > 100 µM
TGI [51]: > 100 µM
TGI [52]: > 100 µM

C=C1CC2(OC1=O)c1ccccc1CCc1ccccc12
TGI [1]: 3.6 µM
TGI [2]: 3.33 µM
TGI [53]: 3.82 µM
TGI [3]: 7.9 µM
TGI [54]: 3.04 µM
TGI [4]: 3.02 µM
TGI [55]: 32.7 µM
TGI [5]: 9.4 µM
TGI [6]: 15.9 µM
TGI [7]: 3.35 µM
TGI [56]: 6.15 µM
TGI [8]: 3.26 µM
TGI [9]: 4.25 µM
TGI [10]: 4.81 µM
TGI [11]: 29.8 µM
TGI [57]: 27.4 µM
TGI [58]: 41.2 µM
TGI [59]: 16.2 µM
TGI [60]: 21.2 µM
TGI [61]: 3.34 µM
TGI [13]: 18.1 µM
TGI [14]: 44 µM
TGI [62]: 3.6 µM
TGI [15]: 9.9 µM
TGI [16]: 15.6 µM
TGI [17]: 7.18 µM
TGI [18]: 20.3 µM
TGI [19]: 26.7 µM
TGI [20]: 23 µM
TGI [21]: 6.51 µM
TGI [22]: 3.17 µM
TGI [63]: 11.3 µM
TGI [23]: 21.8 µM
TGI [24]: 3.07 µM
TGI [25]: 14.1 µM
TGI [64]: 3.88 µM
TGI [26]: 2.3 µM
TGI [27]: 4.61 µM
TGI [28]: 3.57 µM
TGI [29]: 20.6 µM
TGI [30]: 3.42 µM
TGI [31]: 15.6 µM
TGI [32]: 3.07 µM
TGI [65]: 4.65 µM
TGI [33]: 2.9 µM
TGI [34]: 3.14 µM
TGI [35]: 14.5 µM
TGI [66]: 12.8 µM
TGI [36]: 27.7 µM
TGI [37]: 3.91 µM
TGI [38]: 3.14 µM
TGI [39]: 4.54 µM
TGI [40]: 3.6 µM
TGI [67]: 5.03 µM
TGI [41]: 28 µM
TGI [42]: 3.74 µM
TGI [68]: 3.78 µM
TGI [43]: 3.4 µM
TGI [69]: 4.43 µM
TGI [44]: 2.75 µM
TGI [45]: 31.9 µM
TGI [46]: 7.24 µM
TGI [47]: 7.09 µM
TGI [48]: 5.47 µM
TGI [49]: 3.36 µM
TGI [50]: 2.49 µM
TGI [51]: 4.06 µM
TGI [52]: 26.8 µM
